Measured values reported in PubChem BioAssay AID449750 (Broad Institute, 2010).
“And” between values parts separate entries of the source, which are not always exact repeats. Identical values can stand only once. The source made the active and inactive calls. The rule behind the calls is not given here.

Test: non-covalent RecA intein splicing inhibitors, dose response, biochemical, cell-free, fluorescence, secondary screen (AID 449750)

For CCSC1(SCC)N=C(N)C2(C#N)C(c3ccc(F)cc3)C12C#N (stereo unspecified), the AC50 was 38.3 µM.

For O=C(CCNc1cccc(F)c1)c1cccc([N+](=O)[O-])c1, the AC50 was > 38 µM (inactive).

In the case of COCc1[nH]nc2c1C(c1ccccc1F)C(C#N)=C(N)O2 (stereo unspecified), the AC50 is reported as > 38 µM (inactive).

In the case of COc1ccc2[nH]c(CN3CCC(CO)(CCOc4ccccc4)CC3)c(C)c2c1, the AC50 is reported as > 38 µM (inactive).

Work on CC1(CC(=O)N/N=C/c2ccc(OCc3ccc(Cl)cc3Cl)cc2)OCCCO1 yielded an AC50 of 11.2 µM.

Compound C=CCOc1ccccc1CN(C(=O)CCl)c1ccc2c(c1)OCO2 has an AC50 of 1.28 µM.

Compound O=[N+]([O-])c1ccc(O)c2ncccc12 has an AC50 of 6.6 µM.

For CC(C)=CCC/C(C)=C/Cc1c(O)ccc(C(=O)/C=C/c2ccc(O)cc2)c1O, the AC50 was 16.4 µM.

For CCS(=O)(=O)c1ncc(Cl)c(C(=O)Nc2ccc(C)cc2)n1, the AC50 was > 38 µM (inactive).

Work on CCCc1[nH]nc2c1C(c1ccc(OC)c(CSC3=NCCS3)c1)C(C#N)=C(N)O2 (stereo unspecified) yielded an AC50 of 18.5 µM.

With Cc1cc(C(=O)c2ccc(Cl)cc2)c(NC(=O)CCl)s1 the AC50 was 1.19 µM.

With O=C(Nc1cccc(F)c1)N1CCC(c2ccccc2)CC1 the AC50 was > 38 µM (inactive).

For COC(=O)c1cc(NC(=O)Nc2ccccc2OC)cc(C(=O)OC)c1, the AC50 was > 38 µM (inactive).

COc1ccc(-c2oc(NC(=O)CCl)c(C#N)c2-c2ccc(OC)cc2)cc1 gave an AC50 of 1.55 µM.

In the case of CCCCNC1=CC(=O)C(=O)c2ccccc21, the AC50 is reported as 7.53 µM.

In the case of CCN(CC)CCOc1ccc(/C(=C(/Cl)c2ccccc2)c2ccccc2)cc1, the AC50 is reported as 9.31 µM.

For COC(=O)C1=NN(C(C)=O)C2(CC(=O)N(c3cc(C)cc(C)c3)C2=O)C1 (stereo unspecified), the AC50 was > 38 µM (inactive).

With COc1nc(NC(C)C)nc(N(C#N)CN2C(=O)c3ccccc3S2(=O)=O)n1 the AC50 was > 38 µM (inactive).

With CCc1ccc(S(=O)(=O)/N=C2\C=C(Nc3ccc(C(=O)O)cc3)C(=O)c3ccccc32)cc1 the AC50 was 0.348 µM.

Compound CCOc1ccccc1CNc1ccc(O)cc1 has an AC50 of 37.6 µM.

For CC(C)c1nnc(NC(=O)c2nc(S(=O)(=O)Cc3ccccc3F)ncc2Cl)s1, the AC50 was > 38 µM (inactive).

CN(C)c1ncc(C2=C(Cl)C(=O)C(N3CCCC3)=C(Cl)C2=O)s1 showed an AC50 of 14 µM.

Compound CN(C1=C(NC(=O)c2ccccc2)C(=O)c2ccccc2C1=O)C1CCS(=O)(=O)C1 (stereo unspecified) has an AC50 of 3.3 µM.

Work on C/C(=N/NC(=O)Cc1cc(=O)[nH][nH]1)c1ccc([N+](=O)[O-])cc1 yielded an AC50 of 21.5 µM.

For COC(=O)Cc1[nH]nc2c1C1(CCSCC1)C(C#N)=C(N)O2, the AC50 was > 12 µM (inactive).

With COc1ccccc1-n1nnnc1S(=O)(=O)Cc1ccc(Cl)cc1 the AC50 was > 38 µM (inactive).

CN(CCO)c1cc(Sc2nc3ccccc3s2)c2nonc2c1[N+](=O)[O-] showed an AC50 of 7.53 µM.

Work on Oc1c(Cl)cc(Cl)c(Cl)c1Cc1c(O)c(Cl)cc(Cl)c1Cl yielded an AC50 of 6.85 µM.

For Cc1cc(F)ccc1S(=O)(=O)N(C(=O)c1ccncc1)c1ccc(OC(=O)c2ccncc2)cc1, the AC50 was > 38 µM (inactive).

In the case of COC(=O)CC1=NN(c2nc(C)cc(C)n2)C(=O)C1, the AC50 is reported as > 38 µM (inactive).

In the case of COc1ccc(Cc2nccc3cc(OC)c(OC)cc23)cc1OC, the AC50 is reported as > 38 µM (inactive).

Work on CC(C)(C)NC(=O)C(c1ccc(Cl)cc1)N(Cc1ccco1)C(=O)CCl (stereo unspecified) yielded an AC50 of 11.6 µM.

For CCOCC(=O)NCc1ccc2c(c1)cc(C)n2C, the AC50 was > 38 µM (inactive).

With CC(C)CCn1c(N)c(C(=O)NCc2cccs2)c2nc3ccccc3nc21 the AC50 was > 38 µM (inactive).

Compound Cc1[nH]n(-c2ccccc2)c(=O)c1C(c1ccc(C(=O)O)cc1)c1c(C)[nH]n(-c2ccccc2)c1=O has an AC50 of 2.11 µM.

In the case of O=C(Cc1cc(=O)[nH][nH]1)N/N=C/C(Cl)=C/c1ccccc1, the AC50 is reported as 19.8 µM and 11.1 µM.

For COc1ccc(-c2cc(CNC(=O)CCl)on2)cc1, the AC50 was 16.1 µM.

For O=c1c(Cl)c(Cl)cnn1Cc1ccc(F)cc1, the AC50 was 35.3 µM.

In the case of CN(C)C(=S)N=Nc1[nH]c2ccccc2c1O, the AC50 is reported as > 38 µM (inactive).

In the case of Cc1c(/C=N/Nc2nc3ccccc3[nH]2)c2ccccc2n1C, the AC50 is reported as 28.1 µM.

With COc1ccc(-c2[nH]nc3c2C(c2ccccc2OC(=O)N2CCOCC2)C(C#N)=C(N)O3)cc1 (stereo unspecified) the AC50 was 38.2 µM.

With O=C1/C(=N\S(=O)(=O)c2cccs2)C([n+]2ccccc2)=C([O-])c2ccccc21 the AC50 was 7.78 µM.

With Cc1ccc(-c2nc(CN3CCCC(C(=O)N4CCOCC4)C3)c(C)o2)cc1 (stereo unspecified) the AC50 was > 38 µM (inactive).

With O=[N+]([O-])C(/C=C(/Cl)[N+](=O)[O-])=C(N1CCCCC1)N1CCCCC1 the AC50 was > 38 µM (inactive).

With Cc1cc(C)cc(OC(=O)CS(=O)c2ccc(C(F)(F)F)cc2[N+](=O)[O-])c1 (stereo unspecified) the AC50 was > 38 µM (inactive).

Compound S=C1Cc2ccccc2N1 has an AC50 of 3.46 µM.

For O=C(Nc1ccccc1)c1nnsc1S(=O)(=O)c1ccc(Cl)cc1, the AC50 was > 38 µM (inactive).

Compound O=C(OCn1ncc(Cl)c(Cl)c1=O)c1ccc(C(F)(F)F)cc1 has an AC50 of 3.99 µM.

Cc1ccc(Sc2ccc(NC(=O)CCl)cc2)cc1C showed an AC50 of 0.699 µM.

Work on O=C1CCCC2=C1C(c1ccc3c(c1)OCO3)c1c([nH]n(-c3ccccc3)c1=O)N2 (stereo unspecified) yielded an AC50 of 6.7 µM.

For CC1=NN(c2ccccc2)C(=O)/C1=C\c1cn(CCC#N)nc1-c1ccc(Cl)cc1, the AC50 was > 38 µM (inactive).

With O=C(N/N=C/c1cc(Cl)cc([N+](=O)[O-])c1O)c1ccccc1NS(=O)(=O)c1cccs1 the AC50 was 22.6 µM.

With Cc1cc(C)n(-c2ccc([N+](=O)[O-])cc2)n1 the AC50 was > 38 µM (inactive).

In the case of O=[N+]([O-])c1c(NCCCO)cc(SCc2ccco2)c2nonc12, the AC50 is reported as > 38 µM (inactive).

Work on COc1ccc(C(c2c(C)[nH][nH]c2=O)c2c(C)[nH][nH]c2=O)cc1Br yielded an AC50 of 11.2 µM.

With Nc1ccc2nc(CCCCc3nc4ccccc4[nH]3)[nH]c2c1 the AC50 was > 38 µM (inactive).

For CNc1ccc2nc3ccccc3[n+](C)c2c1, the AC50 was 11.3 µM.

For COc1ccc(Nc2nc(N3CCCCC3)nc3ccccc23)c(OC)c1, the AC50 was > 38 µM (inactive).

With CCOC(=O)N/N=C\c1ccc(OC(=O)c2ccco2)cc1 the AC50 was > 38 µM (inactive).

In the case of O=c1[nH]c(N2CCOCC2)cc2ccccc12, the AC50 is reported as > 38 µM (inactive).

Work on O=C(O)c1ccc(NC2=C(n3nnc4ccccc43)C(=O)c3ccccc3C2=O)cc1 yielded an AC50 of 3.84 µM.

O=c1cc(-c2ccc(C3CCCCC3)cc2)[nH][nH]1 showed an AC50 of 7.41 µM.

Compound COCc1[nH]nc2c1C(c1ccccc1OC)C(C#N)=C(N)O2 (stereo unspecified) has an AC50 of 36.5 µM.

With COC(=O)CCSc1cc(NCCOC(C)=O)c([N+](=O)[O-])c2nonc12 the AC50 was > 38 µM (inactive).

With O=C(Oc1ccc(-n2cnnn2)cc1)c1ccco1 the AC50 was > 38 µM (inactive).

Work on O=S(=O)(O)Oc1c[nH]c2ccccc12 yielded an AC50 of 5.48 µM.

For Oc1[nH]c2ccccc2c1N=NC(=S)N1CCOCC1, the AC50 was > 38 µM (inactive).

CC1=NN(c2ccccc2)C(=O)/C1=C/c1ccc(Cl)cc1 gave an AC50 of 4.65 µM.

In the case of CCCCCC(=O)Cc1cc(O)cc2c1C(=O)Oc1cc(O)c(C(=O)O)c(CCCCC)c1O2, the AC50 is reported as 6.09 µM.

With CCOC(=O)CC1=NN(c2ccccc2)C(=O)C1 the AC50 was 36 µM.

In the case of O=C1C(Cl)=C(Nc2ccc3cn[nH]c3c2)C(=O)c2ccccc21, the AC50 is reported as 3.75 µM.

CCn1nc(/C=C/c2ccccc2)nc2c(=O)n(C)c(=O)nc1-2 showed an AC50 of 0.0666 µM.

For CCCCn1c(NC(=O)c2ccco2)c(S(=O)(=O)c2ccc(C)cc2)c2nc3ccccc3nc21, the AC50 was > 38 µM (inactive).

For COCCOC(=O)C1=C(C)N=C2SCCC(=O)N2C1c1ccc(OC(=O)c2ccco2)cc1 (stereo unspecified), the AC50 was > 38 µM (inactive).

For O=C(CCl)NC(=O)NC12CC3CC(CC(C3)C1)C2, the AC50 was 13.3 µM.

COc1ccc(-c2csc(CCN3N=C(C)CC3=O)n2)cc1 gave an AC50 of 10.1 µM.

In the case of CCOC(=O)CSc1nnc(NCC(=O)OC(C)C)c(=O)[nH]1, the AC50 is reported as > 38 µM (inactive).

With CCOC(=O)Cc1[nH]nc2c1C(c1cccc(OC)c1OC)C(C#N)=C(N)O2 (stereo unspecified) the AC50 was 11.5 µM.

With CC1(S(=O)(=O)O)CC(=O)c2ccccc2C1=O (stereo unspecified) the AC50 was 6.36 µM.

With CC(=O)Nc1ccc(NC(=O)c2nc(S(=O)(=O)Cc3cccc(C)c3)ncc2Cl)cc1 the AC50 was > 38 µM (inactive).

For CNC1=C(N(C(C)=O)c2ccc(Br)cc2)C(=O)c2ccccc2C1=O, the AC50 was 2.43 µM.

For COC(=O)c1ccccc1NC(=S)NC(=O)c1ccc(C)cc1, the AC50 was > 38 µM (inactive).

For Cn1c(O)c(C2=NN(C(=O)CCl)C(c3ccccc3)C2)c(=O)n(C)c1=O (stereo unspecified), the AC50 was 26.2 µM.

In the case of CCOc1ccc(CN(C)C(=O)CCl)cc1, the AC50 is reported as 11.1 µM.

Work on O=C(N/N=C1\C/C(=N\NC(=O)c2ccncc2)c2ccccc21)c1ccncc1 yielded an AC50 of 17.3 µM.

Work on O=C(O)C1Nc2c(O)cc(Cl)c([N+](=O)[O-])c2C2C=CCC12 (stereo unspecified) yielded an AC50 of 10.9 µM.

With O=C1c2[nH]nc(-c3ccccc3O)c2C(c2cccc(Cl)c2)N1Cc1ccco1 (stereo unspecified) the AC50 was > 38 µM (inactive).

With O=S(=O)(Nc1ccc(O)c2ccccc12)c1ccc(OC(F)(F)F)cc1 the AC50 was 0.779 µM.

For O=C(NCCc1ccccc1)C(c1cccs1)N(C(=O)CCl)c1ccc(Cl)cc1 (stereo unspecified), the AC50 was 1.03 µM.

O=C(CCl)N(Cc1cccc([N+](=O)[O-])c1)c1cccc(Cl)c1 gave an AC50 of 2.77 µM.

NC1=NN(c2cccc(C(=O)O)c2)C(=O)C1 gave an AC50 of 29.4 µM.

In the case of O=C1c2ccccc2C(=O)c2c1oc(C(F)(F)F)c2C(=O)c1ccccc1, the AC50 is reported as > 38 µM (inactive).

With O=C(NC1CCCC1)C(c1ccc(F)cc1)N(Cc1ccc(Cl)cc1)C(=O)CCl (stereo unspecified) the AC50 was 5.55 µM.

In the case of CCN(CCN(C)C)C(=O)c1ccc2c(c1NCCO)C(=O)c1ccccc1C2=O, the AC50 is reported as > 38 µM (inactive).

For Cc1[nH]nc2c1C(c1cn[nH]c1-c1ccc(F)cc1)C(C#N)=C(N)O2 (stereo unspecified), the AC50 was > 38 µM (inactive).

For COc1cc2c(cc1OC)-c1c(OC)c(OC)cc3c1C(C2)N(C)CC3 (stereo unspecified), the AC50 was 10.3 µM.

Compound CC(OC(=O)c1cc(O)c2ccccc2c1O)C(=O)Nc1ccc(C(N)=O)cc1 (stereo unspecified) has an AC50 of 10.1 µM.

With CC(=O)N(C)Cc1ccc(C(=O)CCl)cc1 the AC50 was > 38 µM (inactive).

In the case of O=C(Nc1n[nH]c(C(F)(F)F)n1)c1cccs1, the AC50 is reported as > 38 µM (inactive).

With COc1ccc(N2C(=O)CSC23C(=O)N2c4c(cccc43)C(C)=CC2(C)C)cc1 (stereo unspecified) the AC50 was 30.8 µM.

Cc1ccc(-n2nc(C)c3c2OC(N)=C(C#N)C3c2ccc(F)cc2)cc1 (stereo unspecified) gave an AC50 of 26.5 µM.

In the case of O=C(CCl)N(c1ccc(Cl)cc1)c1c[nH]c2ccccc12, the AC50 is reported as 0.746 µM.

With CC(=O)Nc1ccc(NC(=O)c2nc(S(=O)(=O)Cc3ccccc3)ncc2Cl)cc1 the AC50 was > 38 µM (inactive).

O=S(=O)(Nc1ccc(O)c2ccccc12)c1ccc(F)cc1 showed an AC50 of 0.377 µM.

In the case of O=C1C(Cl)=C(N2CCCCC2)C(=O)N1c1ccccc1, the AC50 is reported as > 12 µM (inactive).

With Cc1ccc(SCc2[nH]nc3c2C(c2ccc(C)o2)C(C#N)=C(N)O3)cc1 (stereo unspecified) the AC50 was > 38 µM (inactive).
